Experimental data from ChEMBL document CHEMBL1122086, “Comparison of the inhibition of Escherichia coli and Lactobacillus casei dihydrofolate reductase by 2,4-diamino-5-(substituted-benzyl)pyrimidines: quantitative structure-activity relationships, X-ray crystallography, and computer graphics in structure-activity analysis” (J Med Chem, 1982).

Biological target: T1, Dihydrofolate reductase (Escherichia coli) (UniProt P0ABQ4)
T1 sequence (whole entry): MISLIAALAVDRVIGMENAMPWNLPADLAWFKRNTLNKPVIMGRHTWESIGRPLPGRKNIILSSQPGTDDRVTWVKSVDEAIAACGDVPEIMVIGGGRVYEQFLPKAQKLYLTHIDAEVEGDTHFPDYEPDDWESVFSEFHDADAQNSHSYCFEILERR
Settings: not given

Structure (SMILES)	Log 1/Ki app
Nc1ncc(Cc2ccc([N+](=O)[O-])cc2)c(N)n1	6.2
CC(=O)Nc1ccc(Cc2cnc(N)nc2N)cc1[N+](=O)[O-]	6.97
COc1ccc(Cc2cnc(N)nc2N)cc1C(F)(F)F	7.69
Nc1ncc(Cc2ccc(OC(F)(F)F)cc2)c(N)n1	6.57
CS(=O)(=O)Oc1cccc(Cc2cnc(N)nc2N)c1	6.92

Biological target: Dihydrofolate reductase (Lactobacillus casei) (UniProt P00381)
Sequence (P00381 whole entry): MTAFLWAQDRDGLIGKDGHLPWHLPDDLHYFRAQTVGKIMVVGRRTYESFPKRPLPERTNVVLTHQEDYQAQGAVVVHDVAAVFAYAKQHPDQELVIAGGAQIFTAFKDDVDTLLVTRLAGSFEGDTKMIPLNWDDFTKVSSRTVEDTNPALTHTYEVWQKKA
Settings: Lacticaseibacillus casei
Description: Inhibitory activity against dihydrofolate reductase (DHFR) from Lactobacillus casei (expressed as log 1/Kiapp)

Structure (SMILES)	Log 1/Ki app
Nc1ncc(Cc2ccccc2)c(N)n1	5.2
CN(C)c1ccc(Cc2cnc(N)nc2N)cc1	6.17
CCCCCCOc1ccc(Cc2cnc(N)nc2N)cc1	5.73
CCCCOCc1cccc(Cc2cnc(N)nc2N)c1	5.49
COCCOc1ccc(Cc2cnc(N)nc2N)cc1	6.05
Nc1ncc(Cc2ccc([N+](=O)[O-])cc2)c(N)n1	6
CCCCCCCOc1ccc(Cc2cnc(N)nc2N)cc1	5.36
Cc1cccc(Cc2cnc(N)nc2N)c1	5.78
NC(=O)COc1cccc(Cc2cnc(N)nc2N)c1	5.96
CC(=O)Nc1ccc(Cc2cnc(N)nc2N)cc1[N+](=O)[O-]	6
COCc1cccc(Cc2cnc(N)nc2N)c1	5.64
Nc1ccc(Cc2cnc(N)nc2N)cc1	5.47
COCCOc1cccc(Cc2cnc(N)nc2N)c1	6.12
Nc1ncc(Cc2ccc(Cl)cc2)c(N)n1	6.19
COCCOc1ccc(Cc2cnc(N)nc2N)cc1OCCOC	6.51
Nc1ncc(Cc2cccc(I)c2)c(N)n1	6.67
COCCOc1c(OC)cc(Cc2cnc(N)nc2N)cc1OC	6.26
Nc1ncc(Cc2ccc(Br)cc2)c(N)n1	6.21

Structure (SMILES)	Log 1/Ki app
Nc1ncc(Cc2cccc(Br)c2)c(N)n1	6.23
Nc1ncc(Cc2cccc(C(F)(F)F)c2)c(N)n1	6.16
Nc1ncc(Cc2cccc(F)c2)c(N)n1	5.38
COc1ccc(Cc2cnc(N)nc2N)cc1C(F)(F)F	7.3
Cc1ccc(Cc2cnc(N)nc2N)cc1	5.83
Nc1ncc(Cc2cccc(Cl)c2)c(N)n1	5.9
Nc1ncc(Cc2cccc(O)c2)c(N)n1	5.82
CC(=O)Nc1ccc(Cc2cnc(N)nc2N)cc1	6.05
Nc1ncc(Cc2cc(CO)cc(CO)c2)c(N)n1	5.73
COc1ccc(Cc2cnc(N)nc2N)cc1OC	6.92
CCCCOc1ccc(Cc2cnc(N)nc2N)cc1	6.37
Nc1ncc(Cc2cc(O)cc(O)c2)c(N)n1	3.38
Nc1ncc(Cc2ccc(F)cc2)c(N)n1	5.67
Nc1ncc(Cc2cccc(CO)c2)c(N)n1	5.67
Nc1ncc(Cc2ccc(O)c(O)c2)c(N)n1	5.84
Nc1ncc(Cc2ccc(OC(F)(F)F)cc2)c(N)n1	6.3
CS(=O)(=O)Oc1cccc(Cc2cnc(N)nc2N)c1	5.92
